# Measured values as given in the kinase profiling compilation of Christmann-Franck et al. (2016).
# Assays:
# Experiment in all cases: radiometric filter-binding kinase assay, Kinase HotSpot
# Details in all cases: compound 0.5 µM; ATP 10 µM
# FGFR4 (human) = FGFR4 (human) (UniProt P22455)
# PRKCD (human) = PRKCD (human) (UniProt Q05655)
# MAPK12 (human) = MAPK12 (human) (UniProt P53778)
# MAP3K10 (human) = MAP3K10 (human) (UniProt Q02779)
# PTK6 (human) = PTK6 (human) (UniProt Q13882)
# TNK2 (human) = TNK2 (human) (UniProt Q07912)
# MINK1 (human) = MINK1 (human) (UniProt Q8N4C8)
# RPS6KA2 KD1 KD2 (human) = RPS6KA2 KD1 KD2 (human) (UniProt Q15349)
# ERBB4 (human) = ERBB4 (human) (UniProt Q15303)
# PASK (human) = PASK (human) (UniProt Q96RG2)
# ERBB2 (human) = ERBB2 (human) (UniProt P04626)
# CDK5 CDK5R1 p25 (human) = CDK5 CDK5R1 p25 (human) (UniProt Q00535+Q15078)
# RAF1 (human) = RAF1 (human) (UniProt P04049)
# PTK2 (human) = PTK2 (human) (UniProt Q05397)
# PTK2 (human), sequence (Q05397 whole entry, looked up): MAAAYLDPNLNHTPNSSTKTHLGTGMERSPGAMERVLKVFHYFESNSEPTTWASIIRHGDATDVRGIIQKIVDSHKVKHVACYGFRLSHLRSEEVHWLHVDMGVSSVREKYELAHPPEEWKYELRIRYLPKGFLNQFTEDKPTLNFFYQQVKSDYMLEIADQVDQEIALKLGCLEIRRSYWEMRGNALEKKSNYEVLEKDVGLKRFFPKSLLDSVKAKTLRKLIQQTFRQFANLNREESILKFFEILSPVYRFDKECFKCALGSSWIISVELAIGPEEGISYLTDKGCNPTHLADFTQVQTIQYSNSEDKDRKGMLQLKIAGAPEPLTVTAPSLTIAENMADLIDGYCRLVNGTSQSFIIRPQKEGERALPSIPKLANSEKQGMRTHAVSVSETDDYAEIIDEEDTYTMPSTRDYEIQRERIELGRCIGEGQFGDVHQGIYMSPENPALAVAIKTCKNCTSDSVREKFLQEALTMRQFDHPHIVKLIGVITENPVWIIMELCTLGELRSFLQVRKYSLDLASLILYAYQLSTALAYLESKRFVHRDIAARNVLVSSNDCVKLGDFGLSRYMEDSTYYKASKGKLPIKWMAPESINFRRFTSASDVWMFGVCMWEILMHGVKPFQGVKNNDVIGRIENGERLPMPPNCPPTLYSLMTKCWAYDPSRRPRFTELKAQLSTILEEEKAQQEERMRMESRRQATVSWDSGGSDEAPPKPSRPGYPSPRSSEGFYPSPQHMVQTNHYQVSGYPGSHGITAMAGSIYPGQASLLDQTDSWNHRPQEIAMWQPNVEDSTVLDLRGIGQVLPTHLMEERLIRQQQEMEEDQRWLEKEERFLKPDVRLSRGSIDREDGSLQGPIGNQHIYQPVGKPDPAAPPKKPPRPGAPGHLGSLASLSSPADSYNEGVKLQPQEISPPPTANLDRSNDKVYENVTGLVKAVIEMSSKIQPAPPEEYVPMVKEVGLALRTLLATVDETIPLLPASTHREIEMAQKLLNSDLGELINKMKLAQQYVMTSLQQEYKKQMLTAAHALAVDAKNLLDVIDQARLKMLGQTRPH
# CLK4 (human) = CLK4 (human) (UniProt Q9HAZ1)
# STK16 (human) = STK16 (human) (UniProt O75716)
# STK16 (human), sequence (O75716 whole entry, looked up): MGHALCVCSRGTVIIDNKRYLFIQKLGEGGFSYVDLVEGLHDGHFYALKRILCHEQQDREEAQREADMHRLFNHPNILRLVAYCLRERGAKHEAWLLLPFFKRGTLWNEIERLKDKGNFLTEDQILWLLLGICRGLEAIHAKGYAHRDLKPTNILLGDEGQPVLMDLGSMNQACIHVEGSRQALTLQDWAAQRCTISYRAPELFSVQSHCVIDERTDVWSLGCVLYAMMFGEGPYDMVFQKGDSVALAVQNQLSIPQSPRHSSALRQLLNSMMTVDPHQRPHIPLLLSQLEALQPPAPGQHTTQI
# PLK1 (human) = PLK1 (human) (UniProt P53350)
# JAK3 JH1 JH2 (human) = JAK3 JH1 JH2 (human) (UniProt P52333)
# BMX (human) = BMX (human) (UniProt P51813)
# BMX (human), sequence (P51813 whole entry, looked up): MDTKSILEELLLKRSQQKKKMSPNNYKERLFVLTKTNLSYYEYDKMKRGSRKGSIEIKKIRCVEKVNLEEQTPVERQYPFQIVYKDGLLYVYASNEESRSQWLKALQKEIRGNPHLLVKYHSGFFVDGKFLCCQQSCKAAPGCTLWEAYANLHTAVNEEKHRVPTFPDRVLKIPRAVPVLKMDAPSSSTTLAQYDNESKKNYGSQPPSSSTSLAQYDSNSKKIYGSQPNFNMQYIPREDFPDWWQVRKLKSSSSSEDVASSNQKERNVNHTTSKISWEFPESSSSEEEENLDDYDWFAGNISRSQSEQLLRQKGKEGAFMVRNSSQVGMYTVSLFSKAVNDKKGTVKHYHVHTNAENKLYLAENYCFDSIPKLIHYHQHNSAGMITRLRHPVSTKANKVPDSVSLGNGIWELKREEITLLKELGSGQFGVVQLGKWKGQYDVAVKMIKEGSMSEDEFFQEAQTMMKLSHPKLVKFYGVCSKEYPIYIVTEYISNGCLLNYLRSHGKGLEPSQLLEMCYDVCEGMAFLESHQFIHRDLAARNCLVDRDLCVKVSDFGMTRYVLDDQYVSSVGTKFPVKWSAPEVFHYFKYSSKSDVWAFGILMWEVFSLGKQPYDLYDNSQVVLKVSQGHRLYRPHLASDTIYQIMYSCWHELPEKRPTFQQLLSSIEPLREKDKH
# ROCK1 (human) = ROCK1 (human) (UniProt Q13464)
# MAPKAPK5 (human) = MAPKAPK5 (human) (UniProt Q8IW41)
# LTK (human) = LTK (human) (UniProt P29376)
# LTK (human), sequence (P29376 whole entry, looked up): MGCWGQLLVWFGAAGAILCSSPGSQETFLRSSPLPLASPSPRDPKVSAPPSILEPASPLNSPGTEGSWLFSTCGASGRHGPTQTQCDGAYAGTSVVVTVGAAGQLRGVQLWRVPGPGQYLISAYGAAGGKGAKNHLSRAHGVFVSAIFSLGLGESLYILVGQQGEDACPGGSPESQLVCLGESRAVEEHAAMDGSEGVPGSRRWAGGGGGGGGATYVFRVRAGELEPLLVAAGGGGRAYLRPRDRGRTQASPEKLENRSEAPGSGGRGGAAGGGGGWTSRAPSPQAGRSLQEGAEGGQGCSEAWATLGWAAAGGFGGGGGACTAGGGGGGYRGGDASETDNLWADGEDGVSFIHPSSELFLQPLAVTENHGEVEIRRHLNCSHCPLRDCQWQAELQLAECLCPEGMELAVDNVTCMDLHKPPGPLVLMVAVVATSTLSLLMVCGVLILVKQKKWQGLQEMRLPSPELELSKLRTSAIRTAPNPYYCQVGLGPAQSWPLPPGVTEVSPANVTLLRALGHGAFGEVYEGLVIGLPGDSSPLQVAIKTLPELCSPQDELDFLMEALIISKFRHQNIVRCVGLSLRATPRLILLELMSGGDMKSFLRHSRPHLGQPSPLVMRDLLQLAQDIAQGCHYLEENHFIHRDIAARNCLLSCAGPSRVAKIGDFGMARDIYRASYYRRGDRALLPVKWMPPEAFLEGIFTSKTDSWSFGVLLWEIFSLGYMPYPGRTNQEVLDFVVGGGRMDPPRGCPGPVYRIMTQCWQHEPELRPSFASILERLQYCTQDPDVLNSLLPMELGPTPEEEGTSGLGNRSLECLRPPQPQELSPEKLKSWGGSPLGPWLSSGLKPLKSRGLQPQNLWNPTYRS
# STK11 (human) = STK11 (human) (UniProt Q15831)
# CAMK4 (human) = CAMK4 (human) (UniProt Q16566)
# TYRO3 (human) = TYRO3 (human) (UniProt Q06418)
# MAPK3 (human) = MAPK3 (human) (UniProt P27361)
# MKNK2 (human) = MKNK2 (human) (UniProt Q9HBH9)
# MKNK2 (human), sequence (Q9HBH9 whole entry, looked up): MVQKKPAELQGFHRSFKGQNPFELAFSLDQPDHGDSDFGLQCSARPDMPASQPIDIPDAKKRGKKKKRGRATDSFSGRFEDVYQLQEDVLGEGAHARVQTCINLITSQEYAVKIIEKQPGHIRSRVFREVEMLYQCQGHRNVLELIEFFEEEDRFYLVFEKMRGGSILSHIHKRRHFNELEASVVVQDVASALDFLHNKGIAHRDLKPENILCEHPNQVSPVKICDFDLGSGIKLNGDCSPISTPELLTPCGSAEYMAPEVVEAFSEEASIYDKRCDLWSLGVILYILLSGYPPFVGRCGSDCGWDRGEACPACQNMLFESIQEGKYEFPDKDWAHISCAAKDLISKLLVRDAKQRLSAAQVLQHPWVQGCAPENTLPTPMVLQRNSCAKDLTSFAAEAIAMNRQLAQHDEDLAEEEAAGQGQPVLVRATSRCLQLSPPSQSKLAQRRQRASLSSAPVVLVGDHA
# MAPK14 (human) = MAPK14 (human) (UniProt Q16539)
# MAPK14 (human), sequence (Q16539 whole entry, looked up): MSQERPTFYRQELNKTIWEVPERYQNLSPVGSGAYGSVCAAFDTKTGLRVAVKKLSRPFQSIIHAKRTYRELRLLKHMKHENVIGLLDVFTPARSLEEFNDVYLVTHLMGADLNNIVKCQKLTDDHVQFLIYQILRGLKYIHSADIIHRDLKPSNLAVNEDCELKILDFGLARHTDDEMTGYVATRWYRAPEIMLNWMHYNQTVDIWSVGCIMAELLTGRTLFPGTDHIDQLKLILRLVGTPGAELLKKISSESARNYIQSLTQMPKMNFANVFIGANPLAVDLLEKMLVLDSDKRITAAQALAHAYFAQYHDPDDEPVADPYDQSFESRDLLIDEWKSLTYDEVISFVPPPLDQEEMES
# CSF1R (human) = CSF1R (human) (UniProt P07333)
# CSNK1E (human) = CSNK1E (human) (UniProt P49674)
# SGK2 (human) = SGK2 (human) (UniProt Q9HBY8)
# ACVR1 (human) = ACVR1 (human) (UniProt Q04771)
# NEK2 (human) = NEK2 (human) (UniProt P51955)
# NEK2 (human), sequence (P51955 whole entry, looked up): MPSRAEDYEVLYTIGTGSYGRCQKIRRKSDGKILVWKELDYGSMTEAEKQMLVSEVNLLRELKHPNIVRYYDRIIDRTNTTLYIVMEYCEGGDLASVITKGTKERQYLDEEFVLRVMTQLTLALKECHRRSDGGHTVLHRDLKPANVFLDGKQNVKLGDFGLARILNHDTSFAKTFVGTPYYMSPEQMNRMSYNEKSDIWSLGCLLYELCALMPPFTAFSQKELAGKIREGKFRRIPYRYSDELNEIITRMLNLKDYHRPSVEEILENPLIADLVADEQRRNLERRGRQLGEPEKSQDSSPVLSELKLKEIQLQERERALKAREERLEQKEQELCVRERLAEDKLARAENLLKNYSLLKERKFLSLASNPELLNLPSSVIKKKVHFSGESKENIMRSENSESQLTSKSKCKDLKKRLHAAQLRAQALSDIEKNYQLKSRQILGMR
# MAP4K4 (human) = MAP4K4 (human) (UniProt O95819)
# SRMS (human) = SRMS (human) (UniProt Q9H3Y6)
# STK10 (human) = STK10 (human) (UniProt O94804)
# MET (human) = MET (human) (UniProt P08581)
# AKT3 (human) = AKT3 (human) (UniProt Q9Y243)
# FGFR2 (human) = FGFR2 (human) (UniProt P21802)
# TAOK1 (human) = TAOK1 (human) (UniProt Q7L7X3)
# RPS6KB2 (human) = RPS6KB2 (human) (UniProt Q9UBS0)
# FGFR3 (human) = FGFR3 (human) (UniProt P22607)
# MAPK12 (human), sequence (P53778 whole entry, looked up): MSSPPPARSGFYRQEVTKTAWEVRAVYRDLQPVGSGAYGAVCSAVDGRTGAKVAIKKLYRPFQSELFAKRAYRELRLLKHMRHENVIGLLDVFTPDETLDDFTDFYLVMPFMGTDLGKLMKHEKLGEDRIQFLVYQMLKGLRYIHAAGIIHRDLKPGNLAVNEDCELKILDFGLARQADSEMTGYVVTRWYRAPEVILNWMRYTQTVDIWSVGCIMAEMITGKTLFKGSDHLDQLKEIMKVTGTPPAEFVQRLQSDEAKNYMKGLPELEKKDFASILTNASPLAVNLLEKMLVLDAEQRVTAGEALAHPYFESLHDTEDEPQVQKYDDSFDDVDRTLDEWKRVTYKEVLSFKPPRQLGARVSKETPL
# PTK6 (human), sequence (Q13882 whole entry, looked up): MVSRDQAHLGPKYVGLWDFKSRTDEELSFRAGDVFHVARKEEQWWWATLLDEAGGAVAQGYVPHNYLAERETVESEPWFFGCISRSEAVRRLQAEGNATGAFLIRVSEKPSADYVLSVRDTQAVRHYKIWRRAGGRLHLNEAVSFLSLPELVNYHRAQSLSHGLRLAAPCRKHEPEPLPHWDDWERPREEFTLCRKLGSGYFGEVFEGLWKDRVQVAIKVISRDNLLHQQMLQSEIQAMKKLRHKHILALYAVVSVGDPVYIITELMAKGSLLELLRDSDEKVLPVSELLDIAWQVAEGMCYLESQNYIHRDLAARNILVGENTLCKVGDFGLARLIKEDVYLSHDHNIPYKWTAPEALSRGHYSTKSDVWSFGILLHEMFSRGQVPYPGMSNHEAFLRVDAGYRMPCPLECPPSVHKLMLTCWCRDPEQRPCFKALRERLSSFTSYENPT
smiles,measurement,setting,value
CCOc1cc2ncnc(Nc3cccc(Br)c3)c2cc1OCC,residual activity,FGFR4 (human),87.1%
same,residual activity,PRKCD (human),100%
same,residual activity,MAPK12 (human),105%
same,residual activity,MAP3K10 (human),93.2%
same,residual activity,PTK6 (human),27.7%
same,residual activity,TNK2 (human),58.8%
same,residual activity,MINK1 (human),77.8%
same,residual activity,RPS6KA2 KD1 KD2 (human),74.5%
same,residual activity,ERBB4 (human),34.3%
same,residual activity,PASK (human),92.3%
same,residual activity,ERBB2 (human),13.8%
same,residual activity,CDK5 CDK5R1 p25 (human),89.5%
same,residual activity,RAF1 (human),91.6%
same,residual activity,PTK2 (human),101%
same,residual activity,CLK4 (human),83.1%
same,residual activity,STK16 (human),98.4%
same,residual activity,PLK1 (human),93.6%
same,residual activity,JAK3 JH1 JH2 (human),102%
same,residual activity,BMX (human),95.5%
same,residual activity,ROCK1 (human),98.8%
same,residual activity,MAPKAPK5 (human),71.6%
same,residual activity,LTK (human),69.7%
same,residual activity,STK11 (human),88%
same,residual activity,CAMK4 (human),98.7%
same,residual activity,TYRO3 (human),92.2%
same,residual activity,MAPK3 (human),113%
same,residual activity,MKNK2 (human),34.3%
same,residual activity,MAPK14 (human),87.5%
same,residual activity,CSF1R (human),87.6%
same,residual activity,CSNK1E (human),93.8%
same,residual activity,SGK2 (human),106%
same,residual activity,ACVR1 (human),97.1%
same,residual activity,NEK2 (human),98.7%
same,residual activity,MAP4K4 (human),67%
same,residual activity,SRMS (human),85.7%
same,residual activity,STK10 (human),30.5%
same,residual activity,MET (human),78.6%
same,residual activity,AKT3 (human),104%
same,residual activity,FGFR2 (human),96.3%
same,residual activity,TAOK1 (human),99.9%
same,residual activity,RPS6KB2 (human),102%
same,residual activity,FGFR3 (human),103%
COc1cc2ncnc(Nc3ccc(O)c(Br)c3)c2cc1OC,residual activity,FGFR4 (human),103%
same,residual activity,PRKCD (human),97.3%
same,residual activity,MAPK12 (human),92.8%
same,residual activity,MAP3K10 (human),98.2%
same,residual activity,PTK6 (human),20.1%
same,residual activity,TNK2 (human),10.5%
same,residual activity,MINK1 (human),64.4%
same,residual activity,RPS6KA2 KD1 KD2 (human),63.6%
same,residual activity,ERBB4 (human),29.1%
same,residual activity,PASK (human),57.9%
same,residual activity,ERBB2 (human),33.1%
same,residual activity,CDK5 CDK5R1 p25 (human),98.4%
same,residual activity,RAF1 (human),92.1%
same,residual activity,PTK2 (human),99.5%
same,residual activity,CLK4 (human),101%
same,residual activity,STK16 (human),104%
same,residual activity,PLK1 (human),98.8%
same,residual activity,JAK3 JH1 JH2 (human),100%
same,residual activity,BMX (human),95.3%
same,residual activity,ROCK1 (human),96.1%
same,residual activity,MAPKAPK5 (human),98.7%
same,residual activity,LTK (human),5.44%
same,residual activity,STK11 (human),103%
same,residual activity,CAMK4 (human),95.6%
same,residual activity,TYRO3 (human),78.6%
same,residual activity,MAPK3 (human),97%
same,residual activity,MKNK2 (human),18%
same,residual activity,MAPK14 (human),87.3%
same,residual activity,CSF1R (human),95.3%
same,residual activity,CSNK1E (human),85.1%
same,residual activity,SGK2 (human),95.1%
same,residual activity,ACVR1 (human),128%
same,residual activity,NEK2 (human),105%
same,residual activity,MAP4K4 (human),59.3%
same,residual activity,SRMS (human),90.4%
same,residual activity,STK10 (human),14.5%
same,residual activity,MET (human),96.4%
same,residual activity,AKT3 (human),101%
same,residual activity,FGFR2 (human),95.9%
same,residual activity,TAOK1 (human),93.3%
same,residual activity,RPS6KB2 (human),102%
same,residual activity,FGFR3 (human),98.8%
